Test: Human HepG2 cell viability assay in 384 well format
Format: toxicity, cell-based
Set-up: dose 125 nL, time 70.5 hour; concentration not given beside the values
Conditions: HepG2 cells, read-out: Inhibition

Structure (SMILES) | cytotoxicity at 70.5 h
CC1CCN(S(=O)(=O)NC(C)Cc2ccco2)CC1 (stereo not drawn) | -4.62%
CC(C)Cc1nc(CS(=O)(=O)C(C)C(=O)N2CCOCC2)no1 (stereo not drawn) | -7.75%
CS(=O)(=O)c1ccc(NC(=O)NC2(c3ccccc3)CCC2)cc1 | -8.88%
CCNC(=O)CNC(=O)c1nc(C2CC2)n(-c2ccccc2Cl)n1 | -2.36%
CS(=O)(=O)NC(c1ccccc1)c1ccc2c(c1)CCCO2 (stereo not drawn) | -6.34%
COCCN(CCOC)c1ncc(C#N)cc1Cl | -15.8%
Cc1ccc(C2CSCCN2C(=O)NCc2cccnc2)cc1 (stereo not drawn) | -10.1%
CC(O)CCN(C)C(=O)Nc1cccc(F)c1 (stereo not drawn) | -8.99%
COc1ccc(-n2cc(CNC(=O)c3cc[nH]n3)nn2)cc1 | -3.5%
COc1ccc(-n2cc(CNC(=O)c3cscn3)nn2)cc1 | -17.7%
Cc1ccc(C2CN(CCS(=O)(=O)C(C)C)CCO2)c(C)c1 (stereo not drawn) | -1.77%
CC(O)CCN(C)C(=O)Nc1cc(F)cc(Br)c1 (stereo not drawn) | 1.72%
Cc1ccccc1CCCN1CCS(=O)(=O)CC1C (stereo not drawn) | -6.59%
CCCc1nc(CN(CCO)Cc2cc(Br)ccc2F)no1 | -13.1%
CC(C)N1C(=O)CN(CCOCCO)CC1(C)C | -1.37%
COCCN(Cc1ccco1)c1ncc(C#N)cc1Cl | 20.3%
Cc1nc(C)n(CC2CCCN2Cc2cn3ccccc3c2C#N)n1 (stereo not drawn) | -6.14%
O=C(CN1CCCC(c2noc(C3CC3)n2)C1)N1CCCC1 (stereo not drawn) | 4.7%
CC(SCCC(=O)NC(N)=O)c1cccc(F)c1 (stereo not drawn) | 15.9%
CC(c1ccccc1)N(C)C(=O)CN1CCN(c2cnccn2)CC1 (stereo not drawn) | -16.2%
COCc1nc(C(=O)NS(=O)(=O)c2ccc(OC)c(C)c2)cs1 | -13.2%
CN1CCCC(N(C)C(=O)c2ccc(NC(=O)c3ccc[nH]3)cc2)C1 (stereo not drawn) | -0.19%
O=C(NCc1nnc2ccccn12)N1CCOC(c2cccs2)C1 (stereo not drawn) | -8.39%
O=C(NCc1nnc2ccccn12)N1CCOC(c2ccsc2)C1 (stereo not drawn) | -14.6%

Structure (SMILES) | cytotoxicity at 70.5 h
CC(CNC(=O)CCCc1ccccn1)c1ccsc1 (stereo not drawn) | -12.4%
CCN(CC)C(CNC(=O)CCc1nc(C(C)C)no1)c1ccco1 (stereo not drawn) | -2.56%
N#Cc1ccc(Cl)cc1N1CCC(OC2CCOCC2)CC1 | -3.88%
CC(=O)N1Cc2ccccc2C[C@H]1C(=O)N(C)Cc1ccccn1 | -14.8%
COc1ccccc1C(N)CC(C)C (stereo not drawn) | -8.84%
CCCOc1ccccc1C(N)CC(C)C (stereo not drawn) | -9.52%
CN(Cc1c(F)cccc1Cl)C(=O)c1cnn(CCN2CCCCC2)c1 | 18.7%
Cc1cc(C2CCCN2C(=O)CN2CCc3ccccc32)on1 (stereo not drawn) | -0.619%
CN1CCC(C(=O)N2CCC(=Cc3cccc(F)c3)CC2)CC1=O (stereo not drawn) | 16.2%
CC1COCCN1C(=O)c1cnccn1 (stereo not drawn) | 7.55%
CCc1ncnc(N2CCOCC2CCO)c1F (stereo not drawn) | -2.27%
Cc1nc(CCCNC(=O)c2c(F)cccc2Br)n[nH]1 | 3.62%
NC(=O)c1cnn2c1NCC(CNCC1(c3ccccc3)CCCC1)C2 (stereo not drawn) | 0.136%
Cc1cc(C(=O)Nc2cc(C3CC3)n[nH]2)c2c(C)nn(C)c2n1 | -12.4%
c1ccc(C2(NCC3CNc4ccnn4C3)CCC2)cc1 (stereo not drawn) | -2.65%
CC1CCC(NS(=O)(=O)CC(=O)NC(C2CC2)C2CC2)CC1 (stereo not drawn) | 23.5%
CC1CCC(NS(=O)(=O)CC(=O)NCC2CCC2)CC1 (stereo not drawn) | -13.2%
CC1CCC(NS(=O)(=O)CC(=O)NC2(C(N)=O)CCCC2)CC1 (stereo not drawn) | -7.07%
Cc1cccc(OCCNC(=O)Cn2ccc(C)cc2=O)c1 | -8.95%
CC(C)c1ncc2c(n1)CN(c1ncnc3[nH]ccc13)CC2 | 17.1%
CC(C)C(NC(=O)Cc1ccccc1)C(=O)NCc1ccc(O)nc1 (stereo not drawn) | -11.4%
CCS(=O)(=O)CC(C)N(C)C(=O)COc1ccccc1C#N (stereo not drawn) | -15.4%
CCC(=O)NC(c1ccc(C)cc1)c1cccc(S(C)(=O)=O)c1 (stereo not drawn) | -11.9%
CCNC(=O)C1CCCN(c2ccc3ccc(F)cc3n2)C1 (stereo not drawn) | 0.815%
